From patent US20220088146A1, “Melanocortin Receptor-Specific Peptide Formulations and Methods for Gastrointestinal Tract-Specific Delivery” (Palatin Technologies, Inc., priority 2018, published 2022)
Numbered stars: 1 amine (or outer) side, 2 acyl side, 3 side chain; on linkers, the order of the positions; unused ones are H or OH. Bridge positions count the residues as written; N and C are the ends. Square brackets hold non-standard residues; d marks the D form. Peptide text beside a SMILES is read from it. Suc = O=C(CCC(=O)[*:2])[*:1]; Nle = CCCC[C@H](N)C(=O)O; Dab = NCC[C@H](N)C(=O)O; Dap = NC[C@H](N)C(=O)O

Target: hMC1r (Homo sapiens, UniProt Q01726)
Sequence (Q01726 whole entry): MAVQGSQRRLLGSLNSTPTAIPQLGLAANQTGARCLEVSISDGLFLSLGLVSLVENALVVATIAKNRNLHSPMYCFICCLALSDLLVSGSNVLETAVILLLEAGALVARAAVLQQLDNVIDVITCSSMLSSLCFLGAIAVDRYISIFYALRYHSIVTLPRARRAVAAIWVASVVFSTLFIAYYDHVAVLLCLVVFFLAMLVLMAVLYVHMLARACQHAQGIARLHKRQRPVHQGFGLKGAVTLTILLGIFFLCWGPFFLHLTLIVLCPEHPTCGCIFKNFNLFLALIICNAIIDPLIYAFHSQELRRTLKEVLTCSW
Test: Assay for agonist activity: cAMP accumulation in HBL melanoma cells
Format: cell-based
Set-up: endogenous in cells; host or cells: HBL human melanoma cells
Conditions: HBL, compared to NDP-α-MSH as 100%, read-out: MC-1 Emax (average; cAMP HBL)
Method: 8.2 Assay for Agonist Activity.
Confluent HBL cells that express hMC1r or HEK-293 cells that express recombinant hMC4r were detached from culture plates by incubation in enzyme-free cell dissociation buffer. Dispersed cells were suspended in Earle's Balanced Salt Solution containing 10 mM HEPES (pH 7.5), 1 mM MgCl2, 1 mM glutamine, 0.5% albumin and 0.3 mM 3-isobutyl-1-methyl-xanthine (IBMX), a phosphodiesterase inhibitor. The cells were plated in 96-well plates at a density of 0.4×10^5 cells per well for HBL cells and 0.5×10^5 cells per well for HEK-293 cells and pre-incubated for 10 minutes. Cells were exposed for 15 minutes at 37° C. to peptides of the present invention dissolved in DMSO (final DMSO concentration of 1%) at a concentration range of 0.05-5000 nM in a total assay volume of 200 μL. […] Data analysis was performed by nonlinear regression analysis with Graph-Pad Prism® software.
All results are expressed in nM except for Emax values, which are percentage values. Peptides with the captioned primary sequence were synthesized and purified as described in Section 7 above, with the resulting peptide having the structure depicted.

Emax | SMILES
97% | CCCC[C@H](NC(C)=O)C(=O)N[C@H]1CCC(=O)NCCCC[C@@H](C(=O)N[C@@H](Cc2c[nH]c3ccccc23)C(N)=O)NC(=O)[C@H](CCCNC(=N)N)NC(=O)[C@@H](Cc2ccccc2)NC(=O)[C@H](Cc2c[nH]cn2)NC1=O [Example 9.1, Ac-Nle-cyclo(Glu-His-D-Phe-Arg-Lys)-Trp-NH2]
95% | CCCC[C@H](NC(C)=O)C(=O)N[C@H]1CCC(=O)NCC[C@@H](C(=O)N[C@@H](Cc2c[nH]c3ccccc23)C(N)=O)NC(=O)[C@H](CCCNC(=N)N)NC(=O)[C@@H](Cc2ccccc2)NC(=O)[C@H](Cc2c[nH]cn2)NC1=O [Example 9.2, Ac-Nle-cyclo(Glu-His-D-Phe-Arg-Dab)-Trp-NH2]
88% | CCCC[C@H](NC(C)=O)C(=O)N[C@H]1CC(=O)NC[C@@H](C(=O)N[C@@H](Cc2c[nH]c3ccccc23)C(N)=O)NC(=O)[C@H](CCCNC(=N)N)NC(=O)[C@@H](Cc2ccccc2)NC(=O)[C@H](Cc2c[nH]cn2)NC1=O [Example 9.4, Ac-Nle-cyclo(Asp-His-D-Phe-Arg-Dap)-Trp-NH2] (Ac-[Nle]DH[dF]R[Dap]W-NH2; lactam 2-6)
87% | CCCC[C@H](NC(C)=O)C(=O)N[C@H]1CSSC[C@@H](C(=O)N[C@@H](Cc2c[nH]c3ccccc23)C(N)=O)NC(=O)[C@H](CCCNC(=N)N)NC(=O)[C@@H](Cc2ccccc2)NC(=O)[C@H](Cc2c[nH]cn2)NC1=O [Example 9.5, Ac-Nle-cyclo(Cys-His-D-Phe-Arg-Cys)-Trp-NH2]
91% | CCCC[C@H](NC(C)=O)C(=O)N[C@H]1CCC(=O)NCCC[C@@H](C(=O)N[C@@H](Cc2c[nH]c3ccccc23)C(N)=O)NC(=O)[C@H](CCCNC(=N)N)NC(=O)[C@@H](Cc2ccccc2)NC(=O)[C@H](Cc2c[nH]cn2)NC1=O [Example 9.6, Ac-Nle-cyclo(Glu-His-D-Phe-Arg-Orn)-Trp-NH2]
93% | CCCC[C@H](NC(C)=O)C(=O)N[C@H]1CCC(=O)NCC[C@@H](C(=O)N[C@H](Cc2c[nH]c3ccccc23)C(N)=O)NC(=O)[C@H](CCCNC(=N)N)NC(=O)[C@@H](Cc2ccccc2)NC(=O)[C@H](Cc2c[nH]cn2)NC1=O [Example 9.7, Ac-Nle-cyclo(Glu-His-D-Phe-Arg-Dab)-D-Trp-NH2]
88% | CCCC[C@H](NC(C)=O)C(=O)N[C@H]1CCC(=O)NCC[C@@H](C(=O)N[C@@H](Cc2c[nH]c3ccccc23)C(N)=O)NC(=O)[C@H](CCCNC(=N)N)NC(=O)[C@H](Cc2ccccc2)NC(=O)[C@H](Cc2c[nH]cn2)NC1=O [Example 9.8, Ac-Nle-cyclo(Glu-His-Phe-Arg-Dab)-Trp-NH2]
73% | CCCC[C@H](NC(C)=O)C(=O)N[C@H]1CCC(=O)NCC[C@@H](C(=O)N[C@H](Cc2cccc3ccccc23)C(N)=O)NC(=O)[C@H](CCCNC(=N)N)NC(=O)[C@@H](Cc2ccccc2)NC(=O)[C@H](Cc2c[nH]cn2)NC1=O [Example 9.9, Ac-Nle-cyclo(Glu-His-D-Phe-Arg-Dab)-D-Nal 1-NH2]
83% | CCCC[C@H](NC(C)=O)C(=O)N[C@H]1CCC(=O)NCC[C@@H](C(=O)N[C@@H](Cc2ccc3ccccc3c2)C(N)=O)NC(=O)[C@H](CCCNC(=N)N)NC(=O)[C@@H](Cc2ccccc2)NC(=O)[C@H](Cc2c[nH]cn2)NC1=O [Example 9.10, Ac-Nle-cyclo(Glu-His-D-Phe-Arg-Dab)-Nal 2-NH2]
69% | CCCC[C@H](NC(C)=O)C(=O)N[C@H]1CCC(=O)NCC[C@@H](C(=O)N[C@H](Cc2ccc3ccccc3c2)C(N)=O)NC(=O)[C@H](CCCNC(=N)N)NC(=O)[C@@H](Cc2ccccc2)NC(=O)[C@H](Cc2c[nH]cn2)NC1=O [Example 9.11, Ac-Nle-cyclo(Glu-His-D-Phe-Arg-Dab)-D-Nal 2-NH2]
75% | CC(=O)N[C@H](Cc1ccccc1)C(=O)N[C@H]1CCC(=O)NCC[C@@H](C(=O)N[C@@H](Cc2c[nH]c3ccccc23)C(N)=O)NC(=O)[C@H](CCCNC(=N)N)NC(=O)[C@@H](Cc2ccccc2)NC(=O)[C@H](Cc2c[nH]cn2)NC1=O [Example 9.12, Ac-D-Phe-cyclo(Glu-His-D-Phe-Arg-Dab)-Trp-NH2]
75% | CC(=O)N[C@@H](Cc1ccccc1)C(=O)N[C@H]1CCC(=O)NCC[C@@H](C(=O)N[C@@H](Cc2c[nH]c3ccccc23)C(N)=O)NC(=O)[C@H](CCCNC(=N)N)NC(=O)[C@@H](Cc2ccccc2)NC(=O)[C@H](Cc2c[nH]cn2)NC1=O [Example 9.13, Ac-Phe-cyclo(Glu-His-D-Phe-Arg-Dab)-Trp-NH2]
80% | N=C(N)NCCC[C@@H]1NC(=O)[C@@H](Cc2ccccc2)NC(=O)[C@H](Cc2c[nH]cn2)NC(=O)CCC(=O)NCC[C@@H](C(=O)N[C@@H](Cc2c[nH]c3ccccc23)C(N)=O)NC1=O [Example 9.14, cyclo(Suc-His-Phe-Arg-Dab)-Trp-NH2] (H[dF]R[Dab]W-NH2; linker N-4 via Suc)
91% | CCCC(=O)N[C@H]1CCC(=O)NCC[C@@H](C(=O)N[C@@H](Cc2c[nH]c3ccccc23)C(N)=O)NC(=O)[C@H](CCCNC(=N)N)NC(=O)[C@@H](Cc2ccccc2)NC(=O)[C@H](Cc2c[nH]cn2)NC1=O [Example 9.15, CH3—(CH2)2—C(═O)-cyclo(Glu-His-D-Phe-Arg-Dab)-Trp-NH2]
89% | CCCCC(=O)N[C@H]1CCC(=O)NCC[C@@H](C(=O)N[C@@H](Cc2c[nH]c3ccccc23)C(N)=O)NC(=O)[C@H](CCCNC(=N)N)NC(=O)[C@@H](Cc2ccccc2)NC(=O)[C@H](Cc2c[nH]cn2)NC1=O [Example 9.16, CH3—(CH2)3—C(═O)-cyclo(Glu-His-D-Phe-Arg-Dab)-Trp-NH2]
90% | CCCCCC(=O)N[C@H]1CCC(=O)NCC[C@@H](C(=O)N[C@@H](Cc2c[nH]c3ccccc23)C(N)=O)NC(=O)[C@H](CCCNC(=N)N)NC(=O)[C@@H](Cc2ccccc2)NC(=O)[C@H](Cc2c[nH]cn2)NC1=O [Example 9.17, CH3—(CH2)4—C(═O)-cyclo(Glu-His-D-Phe-Arg-Dab)-Trp-NH2]
87% | CCCCCCC(=O)N[C@H]1CCC(=O)NCC[C@@H](C(=O)N[C@@H](Cc2c[nH]c3ccccc23)C(N)=O)NC(=O)[C@H](CCCNC(=N)N)NC(=O)[C@@H](Cc2ccccc2)NC(=O)[C@H](Cc2c[nH]cn2)NC1=O [Example 9.18, CH3—(CH2)5—C(═O)-cyclo(Glu-His-D-Phe-Arg-Dab)-Trp-NH2]
83% | N=C(N)NCCC[C@@H]1NC(=O)[C@@H](Cc2ccccc2)NC(=O)[C@H](Cc2c[nH]cn2)NC(=O)[C@@H](NC(=O)C2CC2)CCC(=O)NCC[C@@H](C(=O)N[C@@H](Cc2c[nH]c3ccccc23)C(N)=O)NC1=O [Example 9.19, cyclo-propanoyl-cyclo(Glu-His-D-Phe-Arg-Dab)-Trp-NH2]
79% | N=C(N)NCCC[C@@H]1NC(=O)[C@@H](Cc2ccccc2)NC(=O)[C@H](Cc2c[nH]cn2)NC(=O)[C@@H](NC(=O)C2CCCCC2)CCC(=O)NCC[C@@H](C(=O)N[C@@H](Cc2c[nH]c3ccccc23)C(N)=O)NC1=O [Example 9.20, cyclo-hexanoyl-cyclo(Glu-His-D-Phe-Arg-Dab)-Trp-NH2]
83% | N=C(N)NCCC[C@@H]1NC(=O)[C@@H](Cc2ccccc2)NC(=O)[C@H](Cc2c[nH]cn2)NC(=O)[C@@H](NC(=O)CC2CCCC2)CCC(=O)NCC[C@@H](C(=O)N[C@@H](Cc2c[nH]c3ccccc23)C(N)=O)NC1=O [Example 9.21, cyclopentyl acetyl-cyclo(Glu-His-D-Phe-Arg-Dab)-Trp-NH2]
85% | N=C(N)NCCC[C@@H]1NC(=O)[C@@H](Cc2ccccc2)NC(=O)[C@H](Cc2c[nH]cn2)NC(=O)[C@@H](NC(=O)CC2CCCCC2)CCC(=O)NCC[C@@H](C(=O)N[C@@H](Cc2c[nH]c3ccccc23)C(N)=O)NC1=O [Example 9.22, cyclohexyl acetyl-cyclo(Glu-His-D-Phe-Arg-Dab)-Trp-NH2]
82% | N=C(N)NCCC[C@@H]1NC(=O)[C@@H](Cc2ccccc2)NC(=O)[C@H](Cc2c[nH]cn2)NC(=O)[C@@H](NC(=O)Cc2ccccc2)CCC(=O)NCC[C@@H](C(=O)N[C@@H](Cc2c[nH]c3ccccc23)C(N)=O)NC1=O [Example 9.23, phenyl acetyl-cyclo(Glu-His-D-Phe-Arg-Dab)-Trp-NH2]
83% | N=C(N)NCCC[C@@H]1NC(=O)[C@@H](Cc2ccccc2)NC(=O)[C@H](Cc2c[nH]cn2)NC(=O)[C@@H](NC(=O)CCc2ccccc2)CCC(=O)NCC[C@@H](C(=O)N[C@@H](Cc2c[nH]c3ccccc23)C(N)=O)NC1=O [Example 9.24, phenyl propanoyl-cyclo(Glu-His-D-Phe-Arg-Dab)-Trp-NH2]
97% | CCCC[C@H](NC(C)=O)C(=O)N[C@H]1CCC(=O)NCC[C@@H](C(=O)N[C@@H](C)C(N)=O)NC(=O)[C@H](CCCNC(=N)N)NC(=O)[C@@H](Cc2ccccc2)NC(=O)[C@H](Cc2c[nH]cn2)NC1=O [Example 9.25, Ac-Nle-cyclo(Glu-His-D-Phe-Arg-Dab)-Ala-NH2] (Ac-[Nle]EH[dF]R[Dab]A-NH2; lactam 2-6)
92% | CCCC[C@H](NC(C)=O)C(=O)N[C@H]1CCNC(=O)CCC(=O)NCC[C@@H](C(=O)N[C@@H](Cc2c[nH]c3ccccc23)C(N)=O)NC(=O)[C@H](CCCNC(=N)N)NC(=O)[C@@H](Cc2ccccc2)NC(=O)[C@H](Cc2c[nH]cn2)NC1=O [Example 9.27, Ac-Nle-cyclo(Dab-His-D-Phe-Arg-Dab)-Trp-NH2]
70% | CCCC[C@H](NC(C)=O)C(=O)N[C@H]1CNC(=O)CCC(=O)NC[C@@H](C(=O)N[C@@H](Cc2c[nH]c3ccccc23)C(N)=O)NC(=O)[C@H](CCCNC(=N)N)NC(=O)[C@@H](Cc2ccccc2)NC(=O)[C@H](Cc2c[nH]cn2)NC1=O [Example 9.28, Ac-Nle-cyclo(Dap-His-D-Phe-Arg-Dap)-Trp-NH2]
